Reference: US4048305A, “Tripeptides, their esters and amides, and anti-ulcera activity thereof” (Dr. L. Zambeletti S.p.A., priority 1975, dated 1977)
Square brackets hold non-standard residues; d marks the D form. Peptide text beside a SMILES is read from it.

Legend:
[1] = test system: female rats of "Wistar" strain; experiment: Gastro-protective activity, Shay method (pylorus tying) in rats; type: in vivo, rat; conditions: 100 mg/Kg in peanut oil, 18 hours after administration; for Rat (Shay test) Ulcer depth M ± es: arbitrary values 1 to 4, peanut oil controls 2.4 ± 0.5; for Rat (Shay test) No. of ulcers M ± es: ulcers in the rumen, peanut oil controls 10.7 ± 2.2
Method: Gastro-protective activity of the products was assayed on rats by employing the Shay method (Shay H., Komarov, S. A., Fels, S. S., Meranze, D;, Gruenstein, M. and Siplet, H:Gastroenterology, 5, 43-61, 1945).
The investigation was performed on female rats of "Wistar" strain, of the average weight of 200 g., which had been held, before experiment, in the cages for 10 days at standard ambient conditions (temperature 22° C, humidity about 50%) on a controlled diet (Altromin).
72 hours before the test the animals, distributed into individual cages, were deprived of food while leaving water "ad libitum".
At the end of this time, the animals were anaesthetized with ether and, by opening the abdomen, the tying of the pylorus was effected as well as, thereafter, the administration of the products in the dose of 100 mg/Kg dissolved into peanut oil. The suture of the abdomen was then performed and the animals were then placed again into their respective contention cages.
For each product 15 animals were used whilst another set of 15 animals, which served as control, was given peanut oil at the same volume as that of the treated ones.
After 18 hours from administration of the products, the animals were killed under chloroformic narcosis, the stomachs were removed and opened along the greter curvature and then fixed on cork supports for counting the number of ulcers present in the "rumen" and for evaluating the depth of the lesions by arbitrarily assigning values ranging from 1 to 4 according to the intensity of the lesion.

[2] = test system: "Swiss" strain male mouse; experiment: Acute toxicity (lethality) in mouse, oral; type: in vivo; conditions: for Mouse LD50: Swiss male mouse, fasted 15 hours, suspended in peanut oil, gastric probe
Method: The acute toxicity was assayed in "Swiss" strain male mouse weighing 20-24 g. which were held, before the test, in the cages for 10 days at standard ambient conditions (temperature 22° C, humidity about 50%) and kept on a controlled diet (Altromin).
Before the test, the animals were deprived of food for 15 hours, while leaving water "ad libitum".
Lethality was determined on 10 animals for each group-dose by using on the whole 60 animals for each product. For administration, the products were suspended into peanut oil and administered at the maximum volume of 0.1 ml/10 g. of body weight, by means of a gastric probe.

SMILES	Rat (Shay test) Ulcer depth M ± es [1]	Rat (Shay test) No. of ulcers M ± es [1]	Mouse LD50 [2]	LD50 ([2]; mouse, oral, in peanut oil)
COC(=O)C(Cc1c[nH]cn1)NC(=O)C(Cc1ccccc1)NC(=O)C(Cc1ccccc1)NC(C)=O (mixture of isomers) [N-acetyl-dl-phenylalanyl-dl-phenylalanyl-dl-histidine methylester]	1.7 ± 0.2	6.7 ± 1.7	> 5000 mg/Kg/os	
COC(=O)[C@H](Cc1c[nH]cn1)NC(=O)[C@@H](Cc1ccccc1)NC(=O)[C@H](Cc1ccccc1)NC(C)=O [N-acetyl-l-phenylalanyl-d-phenylalanyl-l-histidine-methylester]	1.5 ± 0.4	5.6 ± 1.5	> 5000 mg/Kg/os	
CC(=O)N[C@@H](Cc1ccccc1)C(=O)N[C@H](Cc1ccccc1)C(=O)N[C@@H](Cc1c[nH]cn1)C(N)=O [N-acetyl-l-phenylalanyl-d-phenylalanyl-l-histidineamide] (Ac-Phe-[dF]-His-NH2)	1.3 ± 0.2	6.2 ± 1.6	> 5000 mg/Kg/os	
CNC(=O)[C@H](Cc1c[nH]cn1)NC(=O)[C@H](Cc1ccccc1)NC(=O)[C@H](Cc1ccccc1)NC(C)=O [N-acetyl-l-phenylalanyl-l-phenylalanyl-l-histidine methylamide] (Ac-Phe-Phe-His-NHMe)	1.4 ± 0.3	5.8 ± 1.4	> 5000 mg/Kg/os	
COC(=O)[C@H](Cc1c[nH]cn1)NC(=O)[C@H](Cc1ccccc1)NC(=O)[C@H](Cc1ccccc1)NC(C)=O [N-acetyl-l-phenylalanyl-l-phenylalanyl-l-histidine methylester]	1.1 ± 0.3	4.6 ± 1.1	> 5000 mg/Kg/os	
CC(=O)N[C@@H](Cc1ccccc1)C(=O)N[C@@H](Cc1ccccc1)C(=O)N[C@@H](Cc1c[nH]cn1)C(=O)O [N-acetyl-l-phenylalanyl-l-phenylalanyl-l-histidine] (Ac-Phe-Phe-His-OH)	2.1 ± 0.3	8.4 ± 1.8	≥ 5000 mg/Kg/os	approximately 5 g./Kg
CC(=O)N[C@@H](Cc1ccccc1)C(=O)N[C@@H](Cc1ccccc1)C(=O)N[C@@H](Cc1c[nH]cn1)C(N)=O [N-acetyl-l-phenylalanyl-l-phenylalanyl-l-histidineamide] (Ac-Phe-Phe-His-NH2)	1.1 ± 0.4	3.1 ± 1.7	> 5000 mg/Kg/os	
